Key:
[1] = target: inducible nitrogen oxide synthetase (Homo sapiens, UniProt P35228); settings: by inhibiting inducible nitrogen oxide synthetase; cited from earlier work
[2] = tested on: nucleus pulposus-induced reduction of nerve root conduction velocity (sacrococcygeal cauda equina); test: Series-2: nerve root conduction velocity three days after autologous nucleus pulposus application to the cauda equina; assay type: in vivo; settings: pig, mean ± SD
Description: Series-2: Nucleus pulposus was harvested from lumbar discs and applied to the sacrococcygeal cauda equina in 13 pigs autologously. […] Three days after the application the nerve root conduction velocity was determined over the application zone by local electrical stimulation.
Thirteen pigs, (body weight 25-30 kg) received an intramuscular injection of 20 mg/kg body weight of Ketala (ketamine 50 mg/ml, Parke-Davis, Morris Plains, N.J.) and an intravenous injection of 4 mg/kg body weight of Hypnodil^R (methomidate chloride 50 mg/ml, AB Leo, Helsingborg, Sweden) and 0.I mg/kg body weight of Stresnil^R (azaperon 2 mg/ml, Janssen Pharmaceutica, Beerse, Belgium). […]
Three days after the application, the pigs were reanaesthetized by an intramuscular injection of 20 mg/kg body weight of Ketalar^R and an intravenous injection of 35 mg/kg body weight of Pentothal^R (Thiopental sodium, Abbott lab, Chicago, Ill.). […] Local tissue temperature was continuously monitored and maintained at 37.5-38.0° C. by means of a heating lamp. […]
The person performing the neurophysiologic analyses was unaware of the experimental protocol for the individual animal, and after finishing the complete study the data were arranged in the three experimental groups and statistical differences between the groups were assessed by Student's t-test. […]

[3] = tested on: nucleus pulposus-related effects on adjacent nerve roots; settings: literature refs 38, 2, 3, 69; cited from earlier work
[4] = tested on: nucleus pulposus-induced reduction of nerve root conduction velocity (sacrococcygeal cauda equina); test: Series-3: nerve root conduction velocity seven days after autologous nucleus pulposus application to the cauda equina; assay type: in vivo; settings: pig; for NCV (m/s ± SD): seven days after nucleus pulposus application, mean ± SD; for block of nucleus pulposus induced nerve injury (in words): seven days, systemic treatment
Description: Series-3: Thirteen pigs had autologous nucleus pulposus placed onto their sacrococcygeal cauda equina similar to series-2. Five pigs (bodyweight 25 kg) received Remicade^R (infliximab) 100 mg i.v. preoperatively, and 8 pigs received EnbrelR (etanercept) 12.5 mg s.c. preoperatively and additionally 12.5 mg s.c. three days after the operation. Seven days after the nucleus pulposus-application the nerve root conduction velocity was determined over the application zone by local electrical stimulation according to series-2. Five pigs (bodyweight 25 kg) received the human/murine monoclonal antibody Remicade^R (infliximab, […]) 100 mg i.v. preoperatively, and 8 pigs received Enbrel^R (etanercept, […]) 12.5 mg s.c. preoperatively and additionally 12.5 mg s.c. three days after the operation. Seven days after the nucleus pulposus-application the nerve root conduction velocity was determined over the application zone by local electrical stimulation according to series-2. […] No non-treated animals were included in the series-3 due to the pre-existing knowledge of nerve conduction velocity after seven days of either nucleus pulposus or fat (control) application. The statistical difference between the groups, infliximab, and etanercept, nucleus pulposus without treatment (positive control from previous data) and application of retroperitoneal fat (negative control from previous data) was assessed by using ANOVA and Fisher's PLSD at 5%.

Chain of inducible nitrogen oxide synthetase (P35228 whole entry): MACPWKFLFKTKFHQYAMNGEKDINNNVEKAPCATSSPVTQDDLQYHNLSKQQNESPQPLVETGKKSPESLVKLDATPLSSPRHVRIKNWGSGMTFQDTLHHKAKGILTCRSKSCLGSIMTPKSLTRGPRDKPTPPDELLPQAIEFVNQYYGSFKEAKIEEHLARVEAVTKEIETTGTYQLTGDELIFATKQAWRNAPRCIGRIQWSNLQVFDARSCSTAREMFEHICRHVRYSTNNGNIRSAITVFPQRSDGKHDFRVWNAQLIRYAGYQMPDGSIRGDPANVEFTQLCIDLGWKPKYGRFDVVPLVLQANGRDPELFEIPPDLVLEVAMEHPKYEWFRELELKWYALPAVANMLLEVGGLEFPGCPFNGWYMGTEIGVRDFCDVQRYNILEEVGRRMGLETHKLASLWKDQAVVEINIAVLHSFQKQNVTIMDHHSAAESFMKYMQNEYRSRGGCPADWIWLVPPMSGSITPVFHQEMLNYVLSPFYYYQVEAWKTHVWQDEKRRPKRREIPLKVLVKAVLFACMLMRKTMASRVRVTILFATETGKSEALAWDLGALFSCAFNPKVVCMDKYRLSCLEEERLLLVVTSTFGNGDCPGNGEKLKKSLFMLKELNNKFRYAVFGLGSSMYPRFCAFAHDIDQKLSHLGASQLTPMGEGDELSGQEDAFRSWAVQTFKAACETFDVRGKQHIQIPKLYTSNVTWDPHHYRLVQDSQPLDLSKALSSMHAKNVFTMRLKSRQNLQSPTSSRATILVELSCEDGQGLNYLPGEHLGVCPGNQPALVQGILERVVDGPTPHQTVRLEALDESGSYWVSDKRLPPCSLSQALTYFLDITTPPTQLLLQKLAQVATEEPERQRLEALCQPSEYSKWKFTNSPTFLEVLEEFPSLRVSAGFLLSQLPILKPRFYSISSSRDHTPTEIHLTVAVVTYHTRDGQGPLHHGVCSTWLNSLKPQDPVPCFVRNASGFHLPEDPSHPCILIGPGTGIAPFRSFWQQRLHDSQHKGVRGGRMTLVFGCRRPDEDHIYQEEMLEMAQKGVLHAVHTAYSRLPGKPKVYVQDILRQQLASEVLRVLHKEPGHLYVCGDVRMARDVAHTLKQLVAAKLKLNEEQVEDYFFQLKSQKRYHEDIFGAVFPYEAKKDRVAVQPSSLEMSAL

N=C(N)NN [Aminoguanidine]
inhibition of release of nitrogen oxide (NO) at nerve root injuries (in words) [1]: inhibit the release of nitrogen oxide (NO)

C[C@H]1c2cccc(O)c2C(=O)C2=C(O)[C@]3(O)C(=O)C(C(N)=O)=C(O)[C@@H](N(C)C)[C@@H]3[C@@H](O)[C@@H]21 [Doxycycline, doxycycline]
NCV (m/s ± SD) [2]: 76 ± 9 m/s

COc1ccc2c(c1)c(CC(=O)O)c(C)n2C(=O)c1ccc(Cl)cc1 [indomethacin]
block of nucleus pulposus-related effects (in words) [3]: slightly less efficiently

CCN(CC)CC(=O)Nc1c(C)cccc1C [lidocaine]
block of nucleus pulposus-related effects (in words) [3]: slightly less efficiently

cyclosporin A
block of nucleus pulposus-related effects (in words) [3]: blocked efficiently

etanercept [Embrel^R]
NCV (m/s ± SD) [4]: 78 ± 14 m/s
block of nucleus pulposus induced nerve injury (in words) [4]: blocked the nucleus pulposus induced nerve injury efficiently

infliximab [Remicade^R]
NCV (m/s ± SD) [4]: 79 ± 15 m/s
block of nucleus pulposus induced nerve injury (in words) [4]: blocked the nucleus pulposus induced nerve injury efficiently
